This experiment relates to DIO-NASH mouse model. The experiment in a line: Biopsy-confirmed DIO-NASH (AMLN diet) mouse model, 12 weeks of daily treatment. It counts as in vivo. The procedure:
ALT-801 was evaluated for its metabolic and anti-fibrotic effects during 12 weeks of treatment in the well-documented Amylin Liver NASH (AMLN) DIO-NASH mouse model[22],[44] at Gubra ApS. Mice had ad libitum access to tap water and a diet high in fat (40%, containing 18% trans-fat; 40% carbohydrates, 20% fructose) and 2% cholesterol (AMLN diet; D09100301, Research Diets, New Brunswick, NJ). Semaglutide (GLP-1R agonist) and elafibranor (peroxisome proliferator-activated receptor [PPAR]-α/δ agonist) were included as comparators to assess the effects of added GCGR agonism, and a previously observed modest antifibrotic effect in this assay, respectively. […]
After 29 weeks of diet induction (week-3 relative to start of treatment) a pre-treatment liver biopsy was performed as described in detail previously[44] to select animals for stratification and randomization based on histological assessment. Liver histology was scored using the NAS and fibrosis stage criteria defined by the NASH Clinical Research Network Pathology Committee[47] and only those animals with confirmed steatosis (score ≥ 2) and fibrosis (stage ≥ 1) were selected for stratification and randomization. A stratified randomization into treatment groups was performed for the biopsy-proven DIO-NASH mice according to liver collagen type 1 alpha 1 (Col1A1) quantification at week-3. […]

For the compound `CSc1ccc(C(=O)/C=C/c2cc(C)c(OC(C)(C)C(=O)O)c(C)c2)cc1` [elafibranor], the “Animals with reduction in fibrosis stage of 1 or greater compared to the start of treatment” value (12 weeks) is recorded as 75%. In addition, the “Body weight vs. vehicle” value (daily for 12 weeks, ALT-801 5 and 10 nmol/kg s.c., semaglutide 10 nmol/kg s.c., elafibranor 78 μmol/kg oral, stabilized after 2–3 weeks, n = 11–12) is recorded as “significant (p < 0.001) body weight decreases”.

The values are drawn from paper PMC9035150, “Effects of ALT-801, a GLP-1 and glucagon receptor dual agonist, in a translational mouse model of non-alcoholic steatohepatitis” (Scientific Reports, 2022).
